This is an account of results in paper PMC6707612, “Cyclic-di-GMP binds to histidine kinase RavS to control RavS-RavR phosphotransfer and regulates the bacterial lifestyle transition between virulence and swimming” (PLoS Pathogens, 2019).

For one test, the system named is RavS^ΔN(R656A). Nature of the test: in vitro phosphotransfer assay with Arg656-substituted RavS. The note with it: 15 or 100 μM c-di-GMP. Type of test: biochemical, Xanthomonas campestris pv. campestris. How it is done:
Fig 6 Arg^656 in the CA domain of RavS is a key residue for c-di-GMP binding. (a, b) c-di-GMP binds to the DHp-CA domain of RavS. PAS-A, PAS-B and DHp-CA in (a), and DHp and CA domains of RavS in (b), were purified and the interaction with c-di-GMP was measured by MST. Each assay was repeated three times. Standard deviations are shown. (c) Molecular docking model of the interaction between c-di-GMP and DHp-CA of RavS. c-di-GMP is shown as a ball-and-stick model and DHp-CA is shown in ribbon representation. (d) Schematic view of the predicted docking site between c-di-GMP and DHp-CA. Potential hydrogen bonds are indicated as blue dashed lines. Autodock software was used to predict the interaction. […] Ten recombinant proteins of the DHp-CA region, each containing a substitution of a putative essential residue involved in c-di-GMP binding, were used in the MST assay to quantify the Kd value of RavS–c-di-GMP binding. fl-c-di-GMP was used in the MST assay. […] The reactions were terminated with 5× SDS loading buffer and the products were separated by 12% SDS-PAGE, exposed to a phosphor screen and analysed by Typhoon FLA7000. […]
An in vitro autophosphorylation assay was conducted as described in our previous study. […] After electrophoresis, gels were exposed to a phosphor screen (GE Healthcare) and the autoradiographic signals were detected by a Typhoon FLA7000 (GE Healthcare).

Another test deals with T1, RavS^ΔN (Xanthomonas campestris pv. campestris, UniProt Q8P9A6).
T1 sequence (Q8P9A6 352-697): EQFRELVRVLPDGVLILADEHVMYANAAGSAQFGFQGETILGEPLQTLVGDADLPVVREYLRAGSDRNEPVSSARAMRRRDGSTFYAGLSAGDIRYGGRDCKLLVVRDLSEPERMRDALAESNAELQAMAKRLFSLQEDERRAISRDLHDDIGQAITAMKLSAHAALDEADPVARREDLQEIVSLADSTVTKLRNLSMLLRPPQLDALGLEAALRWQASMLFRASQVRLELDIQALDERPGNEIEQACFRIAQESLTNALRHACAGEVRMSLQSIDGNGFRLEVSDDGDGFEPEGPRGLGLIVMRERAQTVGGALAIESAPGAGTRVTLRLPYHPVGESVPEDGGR
Nature of the test: microscale thermophoresis (MST) binding. To be noted: 20 nM fluorescein-labelled nucleotide, read-out: dissociation constant (Kd). How it is done:
The interaction between c-di-GMP nucleotides and various proteins was measured by using MST with a fluorescein-labelled c-di-GMP (2′-Fluo-AHC-c-di-GMP, abbreviated as fl-c-di-GMP; 2′-Fluo-AHC-c-di-AMP, fl-c-di-AMP; 2′-Fluo-AHC-cGMP, fl-cGMP; Biolog, Germany). These chemicals contain carboxyfluorescein that has excitation and emission wavelengths of 497 nm and 520 nm, respectively, which can be detected directly by a MST instrument. The experiments were performed on a Monolith NT.115 device using standard treated capillaries (NanoTemper Technologies, Germany). The concentration of the particular protein varied from 0.036 to 150 μM with a 2-fold gradient and the concentration of fl-c-di-GMP was constant at 20 nM. Fluorescence intensity due to thermophoresis was recorded using the blue channel optics of the instrument (λex = 470 ± 15 nm, λem = 520 ± 10 nm) during a 30 s period of infrared laser heating at 80% of the maximum laser power, followed by a 5 s cooling period. Measurements were performed in buffer containing 20 mM HEPES, pH 7.5, 150 mM NaCl, 2 mM MgCl2, 2 mM DTT and 0.05% Tween 20. […]
Supplementary file ppat.1007952.s007.pdf: S7 Fig c-di-GMP specifically binds to RavS to enhance the RavS-RavR phosphotransfer. […] The interactions of RavS^ΔN, RavA, VgrS and RavR^ΔEAL with fl-c-di-GMP were measured by microscale thermophoresis (MST). Twenty nanomolar fluorescein-labelled nucleotides and increasing concentrations of proteins were co-incubated and potential interactions were measured by MST. The dissociation constant (Kd) was determined to estimate the binding affinity. […]
(b) RavSΔN specifically interacts with fl-c-di-GMP. The interactions of RavSΔN, RavA, VgrS and RavRΔEAL with fl-c-di-GMP were measured by microscale thermophoresis (MST). Twenty nanomolar fluorescein-labelled nucleotide and increasing concentrations of proteins were co-incubated and potential interactions were measured by MST.
The dissociation constant (Kd) was determined to estimate the binding affinity. […]

Broadly, the Kd is a measure of binding affinity in units of concentration.

For the compound `Nc1nc2c(ncn2[C@@H]2O[C@@H]3COP(=O)(O)O[C@H]4[C@@H](O)[C@H](n5cnc6c(=O)[nH]c(N)nc65)O[C@@H]4COP(=O)(O)O[C@H]3[C@H]2O)c(=O)[nH]1` [c-di-GMP, Cyclic di-GMP], the “stimulation of phosphotransferase activity of RavS^ΔN(R656A)~P towards RavR^ΔEAL” value in the test on RavS^ΔN(R656A) is given as “failed to stimulate”.
On to `Nc1nc2c(ncn2[C@@H]2O[C@@H]3COP(=O)(O)O[C@H]4[C@@H](OC(=O)NCCCCCCNC(=O)c5ccc6c(c5)C(=O)OC65c6ccc(O)cc6Oc6cc(O)ccc65)[C@H](n5cnc6c(=O)[nH]c(N)nc65)O[C@@H]4COP(=O)(O)O[C@H]3[C@H]2O)c(=O)[nH]1` [fl-c-di-GMP, 2′-Fluo-AHC-c-di-GMP], for which the Kd at RavS^ΔN came out at 5.62 ± 0.74 µM.
